Assay results taken from patent publication US9827313B2, “Self-assembled pharmaceutical composition for photodynamic therapy” (SNU R&DB FOUNDATION, priority 2014, dated 2017).

Legend:
HCT116 cancer cells = assay: pH-dependent cellular uptake (flow cytometry, fluorescence imaging); assay type: cell-based, human; conditions: HCT116, pH 6.8 vs pH 7.4
Method: HCT116 cells were exposed to PMNs, InS-NPs and Ce6 at different pHs to verify their cellular uptake respectively. The cells were incubated for 2 h, washed, harvested, and re-suspended with DPBS. In vitro cellular uptake was quantified using a flow cytometer (Beckman, San Jose, Calif., USA). For each sample 10,000 cells (gated events) were counted, and free Ce6 fluorescence was detected with logarithmic settings (FL4; λem=670 nm). Cells were counted as positive if their fluorescence (FL4) was higher than that of cells from an untreated cell suspension. Each experiment was analyzed statistically using the CXP Analysis Program.
The tumor cellular uptake of PMNs was monitored at different pH conditions (pH 7.4 and 6.8) using a KODAK In vivo Image Station (Image Station 4000 MM; Kodak, New Haven, Conn., USA) and a flow cytometer (Beckman, San Jose, Calif., USA). HCT116 cells (1×10^5 cells/mL) were incubated with each sample for 2 h in RPMI-1640 medium (pH 7.4 or 6.8, with 1% penicillin-streptomycin) at 37° C. and then analyzed. To ameliorate photobleaching during microscope observation, a drop of anti-fade mounting solution (5% N-propyl gallate, 47.5% glycerol, and 47.5% Tris-HCl, pH 8.4) was added to the cells.

[1] = system: heterogeneous CT26 tumors; assay: In vivo PDT in heterogeneous drug-resistant CT26 tumors; parameters: species or system BALB/c nude mice; conditions: heterogeneous CT26 tumors after PDT
Method: For histology analysis, tumor tissues from control and treated mice were fixed in 10% neutral buffered formalin and frozen sectioned into 5 micron thick slices, stained with hematoxylin & eosin (H&E) and terminal deoxynucleotidyl transferase dUTP nick-end labeling (TUNEL), and were examined by a digital microscope (Leica QWin) and a confocal laser scanning microscope (LSM 510 Meta; Zeiss, Germany).
For in vitro PDT, HCT116 cells (5×10^4/well) were incubated with the materials described above. Photosensitization experiments were then performed by irradiating the cells with a 670-nm laser source (Institute of Electronics) for 2 min. The power at the level of the cells was fixed at 5 mW/cm^2. Cell viability was assessed using the MTT assay. Absorbance intensity was measured at 595 nm using a microplate reader (Bio-Tek, VT, USA). A parallel set of control cells was also used in which cells incubated with the respective materials were not exposed to laser irradiation. […] The tumor size was measured 3 times a week after the first PDT treatment by using a Vernier caliper, and tumor volumes were calculated from width (a) and length (b) measurements (V=a^2×b/2, where a≦b). All mice were killed when the tumor measured 1,000 mm^3, at the first sign of suffering, or between 15 and 21 day post-transplantation.

chlorin E6 [Ce6]
cellular uptake, pH dependence (HCT116 cancer cells): not affected by changes in pH
damage to tumor tissue cells, microvasculature and fibroblasts (H&E, TUNEL) [1]: no obvious damage
